Results on two substances are retold here after US10286084B2, “Compositions for the inactivation of virus replication and methods of making and using the same” (priority 2014, dated 2019).

For one series, the system named is p53 and p21 expression. The experiment in a line: Western blot of transfected HeLa cells for p53 and p21. It is filed as cell-based, human. Particulars: Spy Cas9, 48 h post-transfection. As to the method:
(§1) Phenotypic analysis of RGNs in HeLa was performed using the Fugene6 transfection reagent as per the manufacturer's protocol. Cells were plated at 2.5×10^5 cells per well in 6-well plates and transfected with a 3 to 1 ratio of RGN expression vector to pLCE (a GFP-expressing plasmid included to determine transfection efficiency). SiHa cells were transfected with HPV-16-specific RGN expression vectors using Lipofectamine3000 (Clontech) using the manufacturer's protocol. Cells were then harvested and lysed in SDS/β-mercaptoethanol protein lysis buffer 48 hours post transfection. Lysates were subjected to electrophoresis on 4-20% SDS-polyacrylamide gels (Bio-Rad) and transferred to nitrocellulose membranes. The membranes were then probed in 5% milk-PBS-T (PBS, 0.1% Tween 20, 0.5% bovine serum albumin) with the following antibodies: anti-Flag (Sigma F1804), a rabbit Rev polyclonal antiserum (Malim et al., 1989), anti-β-actin (Santa Cruz S.C.-47778), anti-p53 (Santa Cruz S.C.-126), anti-p21 (Santa Cruz S.C.-397), and anti-Rb (BD Pharmigen 554136). The membranes were washed in PBS-T, incubated with a species-specific secondary antibody, and then washed again in PBS-T. The membranes were incubated with Western Bright Sirius Western blot detection kit (Advansta) and signals captured using GeneSnap and quantified using GeneTools (Syngene). […]

The next series deals with p53 effector protein p21. The experiment in a line: Western blot of transfected SiHa cells for p21. It is filed as cell-based, human. Particulars: SiHa (HPV-16) cells, Spy Cas9. As to the method:
as §1, with “The membranes were then probed in 5% milk-PBS-T (PBS, 0.1% Tween 20, 0.5% bovine serum albumin) with the following antibodies: anti-Flag (Sigma F1804), a rabbit Rev polyclonal antiserum (Malim et al., 1989), anti-β-actin (Santa Cruz S.C.-47778), anti-p53 (Santa Cruz S.C.-126), anti-p21 (Santa Cruz S.C.-397), and anti-Rb (BD Pharmigen 554136).” left out
All the work described thus far used the HPV-18 transformed cervical carcinoma cell line HeLa. To extend these studies, we also analyzed the human SiHa cervical carcinoma cell line, which is transformed by HPV-16 (Seedorf et al., 1987), using sgRNAs specific for HPV-16 E6 and E7, which differ in sequence from HPV-18 E6 and E7. […]

The subject of the next series is HPV-18 E6 gene. The series is described as follows: Mutagenesis spectra: PCR, cloning and sequencing of HeLa genomic DNA. It is filed as cell-based. Particulars: Spy Cas9, 48 h post-transfection, of 234 DNA sequence reads. Here is the method: (§2) HeLa cells were plated at 2.5×10^5 cells per well in 6-well plates and transfected using Fugene6 with a 3 to 1 ratio of RGN expression vector to pL/CMV/eGFP (pLCE) (Seedorf et al., 1987), which expresses eGFP, to determine transfection efficiency. Genomic DNA was extracted 48 hours post-transfection using a DNeasy kit (Qiagen) following the manufacturer's protocol. The genomic region surrounding the viral target sites was PCR amplified using GoTaq cocktail (Promega, #9PIM300) and then purified. PCR products were then denatured and reannealed to enable DNA heteroduplex formation: 95° C. for 10 min, 95° C. to 85° C. ramping at −1° C./sec, 85° C. to 25° C. at −0.25° C./sec, and 25° C. hold for 1 minute. After reannealing, products were treated with SURVEYOR nuclease and SURVEYOR enhancer S (Transgenomics) following the manufacturer's protocol, and analyzed on a 2% agarose gel. To determine the sequence spectra of the mutations introduced by HPV-18 E6- and E7-specific sgRNAs, we designed primers with unique restriction enzyme sites that bound sequences flanking the predicted RGN cleavage locations. The mutagenized HeLa genomic DNA was PCR amplified at 48 hours after transfection, cloned, sequenced, and aligned to the HeLa genome.
(§3) We next asked if we could inactivate the endogenous HPV-18 E6 and E7 genes integrated into the HeLa cell genome. As all four sgRNAs appeared to function equivalently, we focused our subsequent research on E6 sgRNA1 and E7 sgRNA1. To confirm these sgRNAs were indeed inducing the expected DNA cleavage, we used the SURVEYOR assay to determine if we could detect RGN-induced indels at the predicted Cas9 cleavage site. For this purpose, we transfected HeLa cells with a px330-based vector encoding Spy Cas9 (Cong et al., 2013) and an E6- or E7-specific sgRNA. At 48 hours post-transfection, we isolated the HeLa genomic DNA and PCR-amplified the regions of the HPV-18 genome containing either the E6 or E7 target site for Cas9. The resultant PCR fragment was then isolated, denatured and then re-annealed to produce a population of DNA heteroduplexes that were digested using SURVEYOR nuclease, which is predicted to cleave at any sites of Cas9-induced mutagenesis. […] To further characterize these mutations, we cloned the same PCR fragments derived from the HPV-18 E6 or E7 gene and then performed DNA sequencing across the predicted cleavage site located 3 bp 5′ to the Cas9 PAM sequence (Mali et al., 2013). Analysis of the HPV-18 E6 gene gave 234 DNA sequence reads, of which 19 bore an assortment of different deletion mutations while 34 contained the same insertion mutation of a single “A” residue 3 bp 5′ to the Spy Cas9 PAM motif. The remaining 181 samples analyzed contained the wildtype E6 sequence. […]

The next series relates to HPV-18 E7 gene. Described as above. It is filed as cell-based. Particulars: Spy Cas9, 48 h post-transfection, of 232 DNA sequences. Here is the method: as §2, §3

Take “E6 sgRNA1: Spy Cas9 sgRNA for HPV-18 E6, GGCGCTTTGAGGATCCAACA; SEQ ID NO: 8 (expressed or natural sequence)”: the “p53 and p21 expression” value in the series on p53 and p21 expression was “specific induction of both p53 and p21 expression”. Moreover, the p21 expression entry with p53 effector protein p21 is “failed to induce p21 expression”. Further, in the series with HPV-18 E6 gene, the “DNA sequence reads bearing deletion mutations” value is on record as 19 and the “DNA sequence reads with insertion of a single A residue 3 bp 5′ to the PAM” value is on record as 34.
“E7 sgRNA1: Spy Cas9 sgRNA for HPV-18 E7, GGAGCAATTAAGCGACTCAG; SEQ ID NO: 10 (expressed or natural sequence)”: in the series on HPV-18 E7 gene, the “DNA sequences with deletion mutations adjacent to the predicted cleavage site” value was 6 and the “DNA sequences with insertions of 1 or 2 bp” value stood at 46.
